Test results published in the NIST ThermoML archive (doi:10.1016/j.tca.2016.08.008).
Numbers after ± are expanded uncertainties.

Test: molar heat capacity at constant pressure
Conditions: 101.33 kPa, Metastable crystal

With O=P([O-])([O-])[O-].[Tb+3] [terbium orthophosphate] the “molar heat capacity at constant pressure” value (291.41 K, Vacuum adiabatic calorimetry) was 108 ± 1.3 J/K/mol, the “molar heat capacity at constant pressure” value (294.82 K, Vacuum adiabatic calorimetry) was 108.6 ± 1.3 J/K/mol and the “molar heat capacity at constant pressure” value (298.47 K, Vacuum adiabatic calorimetry) was 109.3 ± 1.3 J/K/mol. For the same compound, the “molar heat capacity at constant pressure” value (300 K, Vacuum adiabatic calorimetry) was 109.8 ± 1.1 J/K/mol, the “molar heat capacity at constant pressure” value (302.47 K, Vacuum adiabatic calorimetry) was 110 ± 1.3 J/K/mol and the “molar heat capacity at constant pressure” value (307.42 K, Vacuum adiabatic calorimetry) was 110.9 ± 1.3 J/K/mol. For the same compound, the “molar heat capacity at constant pressure” value (310 K, Vacuum adiabatic calorimetry) was 111.5 ± 1.1 J/K/mol, the “molar heat capacity at constant pressure” value (313.46 K, Vacuum adiabatic calorimetry) was 112.2 ± 1.4 J/K/mol and the “molar heat capacity at constant pressure” value (320 K, Vacuum adiabatic calorimetry) was 113.1 ± 1.2 J/K/mol. The “molar heat capacity at constant pressure” value (320.4 K, Vacuum adiabatic calorimetry) was 113.3 ± 1.4 J/K/mol, the “molar heat capacity at constant pressure” value (325 K, Vacuum adiabatic calorimetry) was 113.9 ± 1.2 J/K/mol and the “molar heat capacity at constant pressure” value (327.27 K, Vacuum adiabatic calorimetry) was 114.3 ± 1.4 J/K/mol. For the same compound, the “molar heat capacity at constant pressure” value (334.07 K, Vacuum adiabatic calorimetry) was 115.4 ± 1.4 J/K/mol, the “molar heat capacity at constant pressure” value (340 K, Small sample (50 mg) DSC) was 116.3 ± 3.9 J/K/mol and the “molar heat capacity at constant pressure” value (340.79 K, Vacuum adiabatic calorimetry) was 116.6 ± 1.4 J/K/mol. The “molar heat capacity at constant pressure” value (347.44 K, Vacuum adiabatic calorimetry) was 117.5 ± 1.4 J/K/mol, the “molar heat capacity at constant pressure” value (360 K, Small sample (50 mg) DSC) was 119 ± 3.9 J/K/mol and the “molar heat capacity at constant pressure” value (380 K, Small sample (50 mg) DSC) was 121.5 ± 4 J/K/mol. The “molar heat capacity at constant pressure” value (400 K, Small sample (50 mg) DSC) was 123.7 ± 4.1 J/K/mol, the “molar heat capacity at constant pressure” value (420 K, Small sample (50 mg) DSC) was 125.6 ± 4.2 J/K/mol and the “molar heat capacity at constant pressure” value (433.9 K, Small sample (50 mg) DSC) was 128.2 ± 3.1 J/K/mol. The “molar heat capacity at constant pressure” value (438.9 K, Small sample (50 mg) DSC) was 128.4 ± 3.1 J/K/mol, the “molar heat capacity at constant pressure” value (440 K, Small sample (50 mg) DSC) was 127.4 ± 4.2 J/K/mol and the “molar heat capacity at constant pressure” value (443.9 K, Small sample (50 mg) DSC) was 128.3 ± 3.1 J/K/mol. For the same compound, the “molar heat capacity at constant pressure” value (448.9 K, Small sample (50 mg) DSC) was 128.3 ± 3.1 J/K/mol, the “molar heat capacity at constant pressure” value (453.9 K, Small sample (50 mg) DSC) was 128.3 ± 3.1 J/K/mol and the “molar heat capacity at constant pressure” value (458.9 K, Small sample (50 mg) DSC) was 128.5 ± 3.1 J/K/mol. The “molar heat capacity at constant pressure” value (460 K, Small sample (50 mg) DSC) was 129 ± 4.3 J/K/mol, the “molar heat capacity at constant pressure” value (463.9 K, Small sample (50 mg) DSC) was 128.6 ± 3.2 J/K/mol and the “molar heat capacity at constant pressure” value (468.9 K, Small sample (50 mg) DSC) was 129 ± 3.2 J/K/mol. The “molar heat capacity at constant pressure” value (473.9 K, Small sample (50 mg) DSC) was 129.1 ± 3.2 J/K/mol, the “molar heat capacity at constant pressure” value (478.9 K, Small sample (50 mg) DSC) was 129.3 ± 3.2 J/K/mol and the “molar heat capacity at constant pressure” value (480 K, Small sample (50 mg) DSC) was 130.4 ± 4.3 J/K/mol. The “molar heat capacity at constant pressure” value (483.9 K, Small sample (50 mg) DSC) was 129.7 ± 3.2 J/K/mol, the “molar heat capacity at constant pressure” value (488.9 K, Small sample (50 mg) DSC) was 130.2 ± 3.2 J/K/mol and the “molar heat capacity at constant pressure” value (493.9 K, Small sample (50 mg) DSC) was 130.7 ± 3.2 J/K/mol. For the same compound, the “molar heat capacity at constant pressure” value (498.9 K, Small sample (50 mg) DSC) was 131.4 ± 3.2 J/K/mol, the “molar heat capacity at constant pressure” value (500 K, Small sample (50 mg) DSC) was 131.7 ± 4.4 J/K/mol and the “molar heat capacity at constant pressure” value (503.9 K, Small sample (50 mg) DSC) was 131.7 ± 3.2 J/K/mol. For the same compound, the “molar heat capacity at constant pressure” value (508.9 K, Small sample (50 mg) DSC) was 132.1 ± 3.2 J/K/mol, the “molar heat capacity at constant pressure” value (513.9 K, Small sample (50 mg) DSC) was 132.7 ± 3.3 J/K/mol and the “molar heat capacity at constant pressure” value (518.9 K, Small sample (50 mg) DSC) was 132.9 ± 3.3 J/K/mol. For the same compound, the “molar heat capacity at constant pressure” value (520 K, Small sample (50 mg) DSC) was 132.9 ± 4.4 J/K/mol, the “molar heat capacity at constant pressure” value (523.9 K, Small sample (50 mg) DSC) was 133.1 ± 3.3 J/K/mol and the “molar heat capacity at constant pressure” value (528.9 K, Small sample (50 mg) DSC) was 133.7 ± 3.3 J/K/mol. For the same compound, the “molar heat capacity at constant pressure” value (533.9 K, Small sample (50 mg) DSC) was 134.6 ± 3.3 J/K/mol, the “molar heat capacity at constant pressure” value (538.9 K, Small sample (50 mg) DSC) was 135.3 ± 3.3 J/K/mol and the “molar heat capacity at constant pressure” value (540 K, Small sample (50 mg) DSC) was 134 ± 4.4 J/K/mol. For the same compound, the “molar heat capacity at constant pressure” value (543.9 K, Small sample (50 mg) DSC) was 135.7 ± 3.3 J/K/mol, the “molar heat capacity at constant pressure” value (548.9 K, Small sample (50 mg) DSC) was 136.1 ± 3.3 J/K/mol and the “molar heat capacity at constant pressure” value (553.9 K, Small sample (50 mg) DSC) was 136.5 ± 3.3 J/K/mol. The “molar heat capacity at constant pressure” value (558.9 K, Small sample (50 mg) DSC) was 136.9 ± 3.4 J/K/mol, the “molar heat capacity at constant pressure” value (560 K, Small sample (50 mg) DSC) was 135 ± 4.5 J/K/mol and the “molar heat capacity at constant pressure” value (563.9 K, Small sample (50 mg) DSC) was 137.2 ± 3.4 J/K/mol. For the same compound, the “molar heat capacity at constant pressure” value (568.9 K, Small sample (50 mg) DSC) was 137.5 ± 3.4 J/K/mol, the “molar heat capacity at constant pressure” value (573.9 K, Small sample (50 mg) DSC) was 138 ± 3.4 J/K/mol and the “molar heat capacity at constant pressure” value (578.9 K, Small sample (50 mg) DSC) was 138.3 ± 3.4 J/K/mol. The “molar heat capacity at constant pressure” value (580 K, Small sample (50 mg) DSC) was 135.8 ± 4.5 J/K/mol, the “molar heat capacity at constant pressure” value (583.9 K, Small sample (50 mg) DSC) was 138.2 ± 3.4 J/K/mol and the “molar heat capacity at constant pressure” value (588.9 K, Small sample (50 mg) DSC) was 138.1 ± 3.4 J/K/mol. For the same compound, the “molar heat capacity at constant pressure” value (593.9 K, Small sample (50 mg) DSC) was 138.4 ± 3.4 J/K/mol, the “molar heat capacity at constant pressure” value (598.9 K, Small sample (50 mg) DSC) was 138.7 ± 3.4 J/K/mol and the “molar heat capacity at constant pressure” value (600 K, Small sample (50 mg) DSC) was 136.7 ± 4.5 J/K/mol. For the same compound, the “molar heat capacity at constant pressure” value (603.9 K, Small sample (50 mg) DSC) was 138.6 ± 3.4 J/K/mol, the “molar heat capacity at constant pressure” value (608.9 K, Small sample (50 mg) DSC) was 138.7 ± 3.4 J/K/mol and the “molar heat capacity at constant pressure” value (613.9 K, Small sample (50 mg) DSC) was 138.4 ± 3.4 J/K/mol. The “molar heat capacity at constant pressure” value (618.9 K, Small sample (50 mg) DSC) was 138.5 ± 3.4 J/K/mol, the “molar heat capacity at constant pressure” value (620 K, Small sample (50 mg) DSC) was 137.4 ± 4.6 J/K/mol and the “molar heat capacity at constant pressure” value (623.9 K, Small sample (50 mg) DSC) was 138.6 ± 3.4 J/K/mol. For the same compound, the “molar heat capacity at constant pressure” value (628.9 K, Small sample (50 mg) DSC) was 138.4 ± 3.4 J/K/mol, the “molar heat capacity at constant pressure” value (633.9 K, Small sample (50 mg) DSC) was 136.7 ± 3.3 J/K/mol and the “molar heat capacity at constant pressure” value (638.9 K, Small sample (50 mg) DSC) was 135.8 ± 3.3 J/K/mol. For the same compound, the “molar heat capacity at constant pressure” value (640 K, Small sample (50 mg) DSC) was 138.1 ± 4.6 J/K/mol, the “molar heat capacity at constant pressure” value (643.9 K, Small sample (50 mg) DSC) was 135.7 ± 3.3 J/K/mol and the “molar heat capacity at constant pressure” value (648.9 K, Small sample (50 mg) DSC) was 135.9 ± 3.3 J/K/mol. The “molar heat capacity at constant pressure” value (653.9 K, Small sample (50 mg) DSC) was 136.3 ± 3.3 J/K/mol, the “molar heat capacity at constant pressure” value (658.9 K, Small sample (50 mg) DSC) was 136.4 ± 3.3 J/K/mol and the “molar heat capacity at constant pressure” value (660 K, Small sample (50 mg) DSC) was 138.7 ± 4.6 J/K/mol. The “molar heat capacity at constant pressure” value (663.9 K, Small sample (50 mg) DSC) was 136.8 ± 3.4 J/K/mol, the “molar heat capacity at constant pressure” value (668.9 K, Small sample (50 mg) DSC) was 136.7 ± 3.3 J/K/mol and the “molar heat capacity at constant pressure” value (673.9 K, Small sample (50 mg) DSC) was 136.7 ± 3.3 J/K/mol. For the same compound, the “molar heat capacity at constant pressure” value (678.9 K, Small sample (50 mg) DSC) was 136.8 ± 3.4 J/K/mol and the “molar heat capacity at constant pressure” value (680 K, Small sample (50 mg) DSC) was 139.3 ± 4.6 J/K/mol.
